Data taken from PubChem BioAssay AID1982 (Sanford-Burnham Center for Chemical Genomics, 2009).
Active and inactive are the calls of the source. How the calls were made is not given here.

Columns and labels:
Assay in all cases: kinase panel binding selectivity, selectivity assay, biochemical, KINOMEscan (AID 1982)
MARK1 = conditions: KINOMEscan 353-kinase binding panel, qPCR, at 10 µM, hits give low values
[1] = target: Dual specificity protein kinase CLK2 (Homo sapiens) (UniProt P49760); conditions: KINOMEscan 353-kinase binding panel, qPCR, at 10 µM, hits give low values
EPHA3 = conditions: KINOMEscan 353-kinase binding panel, qPCR, at 10 µM, hits give low values
[2] = target: Tyrosine-protein kinase Lck (Homo sapiens) (UniProt P06239); conditions: KINOMEscan 353-kinase binding panel, qPCR, at 10 µM, hits give low values
Tyrosine-protein kinase Lck (Homo sapiens), sequence (P06239 whole entry, looked up): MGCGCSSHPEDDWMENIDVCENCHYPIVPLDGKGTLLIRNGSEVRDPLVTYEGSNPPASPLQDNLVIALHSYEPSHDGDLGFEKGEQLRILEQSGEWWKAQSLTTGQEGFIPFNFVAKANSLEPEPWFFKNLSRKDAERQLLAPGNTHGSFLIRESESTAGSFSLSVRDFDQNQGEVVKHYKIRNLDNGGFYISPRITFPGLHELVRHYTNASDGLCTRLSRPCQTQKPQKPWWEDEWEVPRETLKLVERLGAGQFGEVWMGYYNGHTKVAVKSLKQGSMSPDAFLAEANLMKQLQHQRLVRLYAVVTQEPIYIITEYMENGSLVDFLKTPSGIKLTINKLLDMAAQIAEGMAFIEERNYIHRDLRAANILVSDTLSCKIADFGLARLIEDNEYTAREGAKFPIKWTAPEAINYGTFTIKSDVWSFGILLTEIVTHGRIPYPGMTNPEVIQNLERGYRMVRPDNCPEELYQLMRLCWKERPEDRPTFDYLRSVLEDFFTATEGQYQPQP

[3] = target: Vascular endothelial growth factor receptor 2 (Homo sapiens) (UniProt P35968); conditions: KINOMEscan 353-kinase binding panel, qPCR; VEGFR2; at 10 µM; hits give low values
PKMYT1 = conditions: KINOMEscan 353-kinase binding panel, qPCR, at 10 µM, hits give low values
[4] = target: MAP/microtubule affinity-regulating kinase 4 (Homo sapiens) (UniProt Q96L34); conditions: KINOMEscan 353-kinase binding panel, qPCR; MARK4; at 10 µM; hits give low values
MAP/microtubule affinity-regulating kinase 4 (Homo sapiens), sequence (Q96L34 whole entry, looked up): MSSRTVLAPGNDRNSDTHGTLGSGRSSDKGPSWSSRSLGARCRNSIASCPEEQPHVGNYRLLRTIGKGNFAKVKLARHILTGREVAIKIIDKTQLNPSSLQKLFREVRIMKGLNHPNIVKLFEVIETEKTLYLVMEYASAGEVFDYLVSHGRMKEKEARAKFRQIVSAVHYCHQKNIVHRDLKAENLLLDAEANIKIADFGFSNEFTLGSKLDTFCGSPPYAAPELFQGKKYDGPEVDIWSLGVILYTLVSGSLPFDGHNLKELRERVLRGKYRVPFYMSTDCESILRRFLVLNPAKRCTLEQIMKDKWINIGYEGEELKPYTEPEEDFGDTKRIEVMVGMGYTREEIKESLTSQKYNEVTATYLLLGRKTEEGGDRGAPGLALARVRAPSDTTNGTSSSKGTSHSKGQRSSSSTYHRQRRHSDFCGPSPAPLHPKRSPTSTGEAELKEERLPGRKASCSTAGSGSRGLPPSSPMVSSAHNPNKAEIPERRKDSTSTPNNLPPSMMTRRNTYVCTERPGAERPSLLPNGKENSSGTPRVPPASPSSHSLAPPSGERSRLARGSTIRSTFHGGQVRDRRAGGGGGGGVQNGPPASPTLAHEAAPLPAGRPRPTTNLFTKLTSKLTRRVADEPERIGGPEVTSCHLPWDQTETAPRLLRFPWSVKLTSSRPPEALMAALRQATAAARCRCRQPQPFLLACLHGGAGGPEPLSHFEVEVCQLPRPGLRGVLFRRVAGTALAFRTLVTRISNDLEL

EPHA6 = conditions: KINOMEscan 353-kinase binding panel, qPCR, at 10 µM, hits give low values
[5] = target: Calcium/calmodulin-dependent protein kinase type II subunit gamma (Homo sapiens) (UniProt Q13555); conditions: KINOMEscan 353-kinase binding panel, qPCR; CAMK2G; at 10 µM; hits give low values
NEK1 = conditions: KINOMEscan 353-kinase binding panel, qPCR, at 10 µM, hits give low values
CSNK2A2 = conditions: KINOMEscan 353-kinase binding panel, qPCR, at 10 µM, hits give low values
[6] = target: Protein kinase C delta type (Homo sapiens) (UniProt Q05655); conditions: KINOMEscan 353-kinase binding panel, qPCR; PRKCD; at 10 µM; hits give low values
Protein kinase C delta type (Homo sapiens), sequence (Q05655 whole entry, looked up): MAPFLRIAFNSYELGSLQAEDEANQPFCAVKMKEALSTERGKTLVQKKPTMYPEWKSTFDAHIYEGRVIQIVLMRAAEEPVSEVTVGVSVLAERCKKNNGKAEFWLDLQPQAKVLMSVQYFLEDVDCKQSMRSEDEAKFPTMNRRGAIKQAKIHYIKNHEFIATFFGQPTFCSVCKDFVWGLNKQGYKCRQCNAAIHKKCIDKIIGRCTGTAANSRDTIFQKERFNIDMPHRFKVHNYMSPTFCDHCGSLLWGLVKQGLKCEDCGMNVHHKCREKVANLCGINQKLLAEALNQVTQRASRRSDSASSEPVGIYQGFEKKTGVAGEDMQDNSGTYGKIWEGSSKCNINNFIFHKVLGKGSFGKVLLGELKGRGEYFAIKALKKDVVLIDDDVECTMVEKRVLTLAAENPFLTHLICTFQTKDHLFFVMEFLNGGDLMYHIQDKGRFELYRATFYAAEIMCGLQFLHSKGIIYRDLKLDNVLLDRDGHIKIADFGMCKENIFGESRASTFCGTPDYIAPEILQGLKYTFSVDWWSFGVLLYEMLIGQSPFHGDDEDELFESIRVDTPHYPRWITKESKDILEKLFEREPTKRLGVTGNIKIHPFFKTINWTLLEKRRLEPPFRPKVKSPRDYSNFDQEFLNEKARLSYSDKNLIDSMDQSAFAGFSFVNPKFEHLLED

MYO3B = conditions: KINOMEscan 353-kinase binding panel, qPCR, at 10 µM, hits give low values
[7] = target: Casein kinase I isoform delta (Homo sapiens) (UniProt P48730); conditions: KINOMEscan 353-kinase binding panel, qPCR; CSNK1D; at 10 µM; hits give low values
PHKG1 = conditions: KINOMEscan 353-kinase binding panel, qPCR, at 10 µM, hits give low values
[8] = target: Receptor-type tyrosine-protein kinase FLT3 (Homo sapiens) (UniProt P36888); conditions: KINOMEscan 353-kinase binding panel, qPCR, at 10 µM, hits give low values
Receptor-type tyrosine-protein kinase FLT3 (Homo sapiens), sequence (P36888 whole entry, looked up, canonical isoform): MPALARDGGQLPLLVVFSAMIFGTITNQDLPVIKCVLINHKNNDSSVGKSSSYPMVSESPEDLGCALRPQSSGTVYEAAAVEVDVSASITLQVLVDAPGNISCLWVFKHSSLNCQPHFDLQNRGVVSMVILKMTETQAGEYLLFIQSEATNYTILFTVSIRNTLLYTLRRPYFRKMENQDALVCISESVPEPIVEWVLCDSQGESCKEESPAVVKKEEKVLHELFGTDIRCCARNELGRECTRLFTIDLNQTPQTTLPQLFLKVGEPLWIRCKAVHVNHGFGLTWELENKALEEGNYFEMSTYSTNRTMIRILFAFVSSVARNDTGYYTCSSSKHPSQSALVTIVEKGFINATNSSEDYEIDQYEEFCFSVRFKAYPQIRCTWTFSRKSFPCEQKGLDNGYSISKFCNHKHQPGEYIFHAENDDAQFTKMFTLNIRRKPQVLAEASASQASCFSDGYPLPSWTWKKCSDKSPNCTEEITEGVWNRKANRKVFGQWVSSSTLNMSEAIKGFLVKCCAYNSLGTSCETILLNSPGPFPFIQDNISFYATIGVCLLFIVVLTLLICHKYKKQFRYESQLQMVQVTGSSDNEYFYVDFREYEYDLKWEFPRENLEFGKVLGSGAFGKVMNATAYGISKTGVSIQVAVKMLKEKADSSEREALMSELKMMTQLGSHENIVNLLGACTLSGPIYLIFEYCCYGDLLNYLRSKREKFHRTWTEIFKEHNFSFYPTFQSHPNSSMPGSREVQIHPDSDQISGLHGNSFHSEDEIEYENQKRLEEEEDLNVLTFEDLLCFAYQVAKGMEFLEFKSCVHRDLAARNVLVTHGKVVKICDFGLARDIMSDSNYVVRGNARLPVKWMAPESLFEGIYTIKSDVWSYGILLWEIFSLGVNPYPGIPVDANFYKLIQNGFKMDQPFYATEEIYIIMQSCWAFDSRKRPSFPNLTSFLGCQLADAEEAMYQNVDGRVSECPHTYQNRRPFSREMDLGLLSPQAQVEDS

[9] = target: Casein kinase I isoform gamma-2 (Homo sapiens) (UniProt P78368); conditions: KINOMEscan 353-kinase binding panel, qPCR; CSNK1G2; at 10 µM; hits give low values
AURKC = conditions: KINOMEscan 353-kinase binding panel, qPCR, at 10 µM, hits give low values
MKNK1 = conditions: KINOMEscan 353-kinase binding panel, qPCR, at 10 µM, hits give low values
JAK1(Kin.Dom.2) = conditions: KINOMEscan 353-kinase binding panel, qPCR, at 10 µM, hits give low values
[10] = target: Mitogen-activated protein kinase kinase kinase 20 (Homo sapiens) (UniProt Q9NYL2); conditions: KINOMEscan 353-kinase binding panel, qPCR; ZAK; at 10 µM; hits give low values
[11] = target: Dual specificity mitogen-activated protein kinase kinase 1 (Homo sapiens) (UniProt Q02750); conditions: KINOMEscan 353-kinase binding panel, qPCR; MEK1; at 10 µM; hits give low values
Dual specificity mitogen-activated protein kinase kinase 1 (Homo sapiens), sequence (Q02750 whole entry, looked up): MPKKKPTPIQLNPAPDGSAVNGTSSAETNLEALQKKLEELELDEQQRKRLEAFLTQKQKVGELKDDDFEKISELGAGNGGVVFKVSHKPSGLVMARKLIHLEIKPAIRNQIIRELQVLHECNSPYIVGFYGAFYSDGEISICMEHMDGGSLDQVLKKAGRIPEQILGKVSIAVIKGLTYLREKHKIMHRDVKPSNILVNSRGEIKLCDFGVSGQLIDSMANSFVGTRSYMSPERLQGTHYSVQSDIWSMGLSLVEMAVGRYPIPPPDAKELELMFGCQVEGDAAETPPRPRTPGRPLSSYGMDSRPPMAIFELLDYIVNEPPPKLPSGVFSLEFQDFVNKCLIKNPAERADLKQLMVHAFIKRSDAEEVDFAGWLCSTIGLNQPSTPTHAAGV

MST4 = conditions: KINOMEscan 353-kinase binding panel, qPCR, at 10 µM, hits give low values
FGFR4 = conditions: KINOMEscan 353-kinase binding panel, qPCR, at 10 µM, hits give low values
[12] = target: Serine/threonine-protein kinase B-raf (Homo sapiens) (UniProt P15056); conditions: KINOMEscan 353-kinase binding panel, qPCR, at 10 µM, hits give low values
Serine/threonine-protein kinase B-raf (Homo sapiens), sequence (P15056 whole entry, looked up): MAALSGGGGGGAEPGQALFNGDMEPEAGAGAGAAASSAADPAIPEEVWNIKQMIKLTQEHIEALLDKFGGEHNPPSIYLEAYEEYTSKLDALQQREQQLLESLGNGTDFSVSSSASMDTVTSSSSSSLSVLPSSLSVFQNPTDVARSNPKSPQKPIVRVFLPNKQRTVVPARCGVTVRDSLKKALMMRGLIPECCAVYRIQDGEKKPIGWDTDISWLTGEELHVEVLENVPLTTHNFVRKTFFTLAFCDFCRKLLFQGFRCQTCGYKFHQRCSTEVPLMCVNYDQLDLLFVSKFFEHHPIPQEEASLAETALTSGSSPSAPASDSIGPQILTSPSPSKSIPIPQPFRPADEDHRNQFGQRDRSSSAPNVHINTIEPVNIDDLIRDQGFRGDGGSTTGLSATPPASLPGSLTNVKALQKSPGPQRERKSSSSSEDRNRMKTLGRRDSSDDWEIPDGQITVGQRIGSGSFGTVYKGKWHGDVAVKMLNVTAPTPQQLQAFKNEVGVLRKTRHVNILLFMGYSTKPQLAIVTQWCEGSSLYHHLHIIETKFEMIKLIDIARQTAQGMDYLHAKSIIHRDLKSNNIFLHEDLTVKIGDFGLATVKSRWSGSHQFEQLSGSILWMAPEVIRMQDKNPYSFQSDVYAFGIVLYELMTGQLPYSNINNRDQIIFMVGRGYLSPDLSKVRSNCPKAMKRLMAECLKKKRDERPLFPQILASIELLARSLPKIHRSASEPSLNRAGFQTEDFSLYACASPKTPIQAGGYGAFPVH

TIE1 = conditions: KINOMEscan 353-kinase binding panel, qPCR, at 10 µM, hits give low values
[13] = target: Inhibitor of nuclear factor kappa-B kinase subunit alpha (Homo sapiens) (UniProt O15111); conditions: KINOMEscan 353-kinase binding panel, qPCR; IKK-alpha; at 10 µM; hits give low values
[14] = target: Mitogen-activated protein kinase kinase kinase kinase 2 (Homo sapiens) (UniProt Q12851); conditions: KINOMEscan 353-kinase binding panel, qPCR; MAP4K2; at 10 µM; hits give low values
JAK1(Kin.Dom.1) = conditions: KINOMEscan 353-kinase binding panel, qPCR, at 10 µM, hits give low values
IRAK3 = conditions: KINOMEscan 353-kinase binding panel, qPCR, at 10 µM, hits give low values
[15] = target: Inhibitor of nuclear factor kappa-B kinase subunit epsilon (Homo sapiens) (UniProt Q14164); conditions: KINOMEscan 353-kinase binding panel, qPCR; IKK-epsilon; at 10 µM; hits give low values
Inhibitor of nuclear factor kappa-B kinase subunit epsilon (Homo sapiens), sequence (Q14164 whole entry, looked up): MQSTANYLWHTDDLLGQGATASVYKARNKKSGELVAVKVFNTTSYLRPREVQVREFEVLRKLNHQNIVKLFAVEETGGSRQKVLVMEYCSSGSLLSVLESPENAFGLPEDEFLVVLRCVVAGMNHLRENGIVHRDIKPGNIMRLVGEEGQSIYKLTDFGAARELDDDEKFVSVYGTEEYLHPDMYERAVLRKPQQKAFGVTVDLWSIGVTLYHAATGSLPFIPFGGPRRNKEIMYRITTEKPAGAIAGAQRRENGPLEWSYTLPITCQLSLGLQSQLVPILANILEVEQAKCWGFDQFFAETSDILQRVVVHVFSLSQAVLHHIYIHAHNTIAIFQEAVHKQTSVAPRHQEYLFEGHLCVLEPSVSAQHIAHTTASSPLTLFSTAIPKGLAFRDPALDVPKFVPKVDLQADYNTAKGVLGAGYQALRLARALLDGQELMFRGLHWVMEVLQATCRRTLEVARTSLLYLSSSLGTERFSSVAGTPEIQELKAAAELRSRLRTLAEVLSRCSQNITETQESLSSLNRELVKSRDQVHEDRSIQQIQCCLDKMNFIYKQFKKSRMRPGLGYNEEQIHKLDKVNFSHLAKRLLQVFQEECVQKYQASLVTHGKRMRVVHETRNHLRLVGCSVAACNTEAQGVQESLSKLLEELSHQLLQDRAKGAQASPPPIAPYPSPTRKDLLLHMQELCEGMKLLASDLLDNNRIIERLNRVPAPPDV

[16] = target: Platelet-derived growth factor receptor alpha (Homo sapiens) (UniProt P16234); conditions: KINOMEscan 353-kinase binding panel, qPCR; PDGFRA; at 10 µM; hits give low values
BMPR1B = conditions: KINOMEscan 353-kinase binding panel, qPCR, at 10 µM, hits give low values

Measured: percent of control binding

Cc1cc2nc(NCCCO)n(CC(=O)c3cc(C(C)(C)C)c(O)c(C(C)(C)C)c3)c2cc1C
inactive: MARK1 100% | [1] 80% | EPHA3 84% | [2] 100% | [3] 88% | PKMYT1 100% | [4] 98% | EPHA6 93% | [5] 100% | NEK1 91% | CSNK2A2 98% | [6] 100% | MYO3B 65% | [7] 99% | PHKG1 100% | [8] 100% | [8]; FLT3(D835H) 100% | [8]; FLT3(D835Y) 99% | [8]; FLT3(ITD) 100% | [8]; FLT3(K663Q) 100% | [8]; FLT3(N841I) 94% | [9] 100% | AURKC 100% | MKNK1 75% | JAK1(Kin.Dom.2) 90% | [10] 93% | [11] 75% | MST4 100% | FGFR4 81% | [12]; BRAF(V600E) 70% | [12]; BRAF 88% | TIE1 100% | [13] 74% | [14] 89% | JAK1(Kin.Dom.1) 100% | IRAK3 100% | [15] 86% | [16] 86% | BMPR1B 100%
